From ChEMBL document CHEMBL1201862, “PubChem BioAssay data set” (2004)
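These data come from cells grown in 96-well plates and exposed to compound for 48 hours at five concentrations. Here, GI50 denotes the concentration required for 50% inhibition of growth.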 Active and inactive are the calls of the source. Rule as the data show it: active = GI50 up to about 1.1 µM and inactive = higher.

What was measured:
Test in all cases: growth of human tumour cells (NCI), 48 h
MOLT-4 = system: MOLT-4
EKVX = system: EKVX
COLO 205 = system: COLO 205
HOP-92 = system: HOP-92
PC-3 = system: PC-3
NCI-H522 = system: NCI-H522
KM12 = system: KM12
SF-295 = system: SF-295
HCC 2998 = system: HCC 2998
SNB-19 = system: SNB-19
SK-OV-3 = system: SK-OV-3
DU-145 = system: DU-145
786-0 = system: 786-0
MDA-MB-435 = system: MDA-MB-435
OVCAR-4 = system: OVCAR-4
TK-10 = system: TK-10
RPMI-8226 = system: RPMI-8226
NCI-H226 = system: NCI-H226
HCT-15 = system: HCT-15
UACC-62 = system: UACC-62

Compound	GI50 (MOLT-4)	GI50 (EKVX)	GI50 (COLO 205)	GI50 (HOP-92)	GI50 (PC-3)	GI50 (NCI-H522)	GI50 (KM12)	GI50 (SF-295)	GI50 (HCC 2998)	GI50 (SNB-19)	GI50 (SK-OV-3)	GI50 (DU-145)	GI50 (786-0)	GI50 (MDA-MB-435)	GI50 (OVCAR-4)	GI50 (TK-10)	GI50 (RPMI-8226)	GI50 (NCI-H226)	GI50 (HCT-15)	GI50 (UACC-62)
O=C(NCCN1CCCCC1)c1ccc(I)cc1	> 100 µM (inactive)	> 100 µM (inactive)	94.6 µM (inactive)	96.4 µM (inactive)	> 100 µM (inactive)	> 100 µM (inactive)	> 100 µM (inactive)	> 100 µM (inactive)	> 100 µM (inactive)	> 100 µM (inactive)	> 100 µM (inactive)	69.3 µM (inactive)	> 100 µM (inactive)	> 100 µM (inactive)	> 100 µM (inactive)	> 100 µM (inactive)	> 100 µM (inactive)	> 100 µM (inactive)	> 100 µM	
COc1cc(S(=O)(=O)Nc2ccc(-c3csc(N4C(=O)C(C)SC4c4cccs4)n3)cc2)ccc1Cl (stereo not drawn)	16 µM (inactive)	57.5 µM (inactive)	24.9 µM (inactive)	20.1 µM (inactive)	15.7 µM (inactive)	20.6 µM (inactive)	0.931 µM (active)	> 100 µM (inactive)			0.481 µM (active)	20.7 µM (inactive)	34.6 µM (inactive)	30 µM (inactive)			24.1 µM (inactive)	6.28 µM (inactive)	37 µM	89.3 µM (inactive)
CN1CCN(c2ccncc2S(=O)(=O)N2CCN(C)CC2)CC1		> 100 µM (inactive)	> 100 µM (inactive)	> 100 µM (inactive)	> 100 µM (inactive)	> 100 µM (inactive)	> 100 µM (inactive)	> 100 µM (inactive)		> 100 µM (inactive)	> 100 µM (inactive)	> 100 µM (inactive)	> 100 µM (inactive)	> 100 µM (inactive)	> 100 µM (inactive)	> 100 µM (inactive)	> 100 µM (inactive)	> 100 µM (inactive)	> 100 µM	> 100 µM (inactive)
COc1ccc(OC)c([N+](=O)[O-])c1-c1nc2sc(Cl)cn2c1/C=N/N=C(N)N	4.9 µM (inactive)	25.6 µM (inactive)	15.3 µM (inactive)	10.1 µM (inactive)	13.8 µM (inactive)	16.6 µM (inactive)	15.4 µM (inactive)	24.9 µM (inactive)	12.7 µM (inactive)	19.4 µM (inactive)		21.8 µM (inactive)	42.9 µM (inactive)	17.5 µM (inactive)	12.2 µM (inactive)	25.2 µM (inactive)	26.9 µM (inactive)	18.2 µM (inactive)	41.2 µM	13.3 µM (inactive)
O=[N+]([O-])c1ccc(/C=N/Nc2nc3ccccc3[nH]2)o1	11.2 µM (inactive)	22.8 µM (inactive)	10.6 µM (inactive)	17.4 µM (inactive)	15.3 µM (inactive)	13.3 µM (inactive)	10.6 µM (inactive)	16 µM (inactive)		26.5 µM (inactive)	33.7 µM (inactive)	13.9 µM (inactive)	24.9 µM (inactive)	4.45 µM (inactive)	8.69 µM (inactive)	19.2 µM (inactive)	2.85 µM (inactive)	22.2 µM (inactive)	11.8 µM	
O=C1NC(=S)NC(=O)C1C(c1ccc([N+](=O)[O-])cc1)C1C(=O)NC(=S)NC1=O.c1ccncc1	> 100 µM (inactive)	> 100 µM (inactive)	> 100 µM (inactive)	> 100 µM (inactive)	> 100 µM (inactive)	> 100 µM (inactive)	> 100 µM (inactive)	> 100 µM (inactive)		> 100 µM (inactive)		> 100 µM (inactive)	> 100 µM (inactive)	> 100 µM (inactive)	> 100 µM (inactive)	> 100 µM (inactive)	> 100 µM (inactive)	> 100 µM (inactive)	> 100 µM	> 100 µM (inactive)
CCCCn1c2c(c3ccccc3c1=O)C(=O)c1ccccc1-2		> 100 µM (inactive)	20.4 µM (inactive)	> 100 µM (inactive)	> 100 µM (inactive)	37.8 µM (inactive)	> 100 µM (inactive)	37.8 µM (inactive)			> 100 µM (inactive)	34.5 µM (inactive)	25.3 µM (inactive)	> 100 µM (inactive)	1.82 µM (inactive)	62.4 µM (inactive)	> 100 µM (inactive)	> 100 µM (inactive)	> 100 µM	> 100 µM (inactive)
Cc1nn(C(=O)c2ccncc2)c2c1C(c1ccc([N+](=O)[O-])cc1)SC(=N)N2 (stereo not drawn)	> 100 µM (inactive)	> 100 µM (inactive)	> 100 µM (inactive)	> 100 µM (inactive)	> 100 µM (inactive)		> 100 µM (inactive)	> 100 µM (inactive)		> 100 µM (inactive)	> 100 µM (inactive)	> 100 µM (inactive)	> 100 µM (inactive)	> 100 µM (inactive)	> 100 µM (inactive)	> 100 µM (inactive)	> 100 µM (inactive)	> 100 µM (inactive)	> 100 µM	> 100 µM (inactive)
